According to publication PMC10917278, “Structural insights into the modulation Of SOD1 aggregation By a fungal metabolite Phialomustin-B: Therapeutic potential in ALS” (PLOS ONE, 2024):

Target: T1, SOD1^WT (Homo sapiens, UniProt P00441)
T1 construct: The full-length constructs of SOD1-wild type (aa: 1–145); His-tag (cleaved yes); made in house; host or cells: E. coli BL21 DE3
Experiment: Microscale thermophoresis (MST) binding assay, Cys-labeled SOD1^WT
Details: PBS buffer, protein 25 nM, PB 30.5 nM to 250 μM, 25 °C, SEM n = 3, read-out: binding affinity Kd
Procedure: To evaluate the binding efficiency of the ligand PB with SOD1^WT, a quantitative binding assay by microscale thermophoresis (MST) was performed. SOD1^WT was labeled at its cysteine residues to ensure non-interference with lysine-containing binding sites of PB (K9, K122, and K128). The cysteine label targeted free cysteines lying away from the ligand-binding site region. The fluorescently labeled SOD1^WT and 16 different concentrations of PB from 250 μM to 30.5 nM were prepared to evaluate the binding interactions between SOD1^WT and PB, as discussed in the methodology. […] The binding affinity was calculated based on the directional movement of molecules along a temperature gradient and the thermophoretic properties of the protein-ligand molecules.
Fig 4 MST interaction analysis of fluorescently labeled SOD1^WT against PB. The binding of PB to fluorescently Cys-labeled SOD1^WT is quantified in PBS buffer. The concentration of PB varied from 30.5 nM to 250 μM, while the protein SOD1^WT was kept constant at 25 nM. MST experiments were conducted at 20% LED excitation and medium MST power at 25 °C. […] Error bars indicate the standard error of the mean, SEM (n = 3).
Binding studies were performed for SOD1^WT and the ligands using microscale thermophoresis (MST). […]

T1 sequence (P00441 whole entry): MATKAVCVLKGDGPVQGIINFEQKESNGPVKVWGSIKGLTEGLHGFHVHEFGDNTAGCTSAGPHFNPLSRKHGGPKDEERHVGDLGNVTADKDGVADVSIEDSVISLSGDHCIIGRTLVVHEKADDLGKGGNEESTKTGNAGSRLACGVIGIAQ

Kd: 3.7 ± 1.2 µM
Compound: CCCC[C@H](C)/C=C(C)/C=C/C(=O)O [PB, (S, 2E, 4E)-4,6-dimethyldeca-2,4-dienoic acid]
